Where a name gives a salt, the structure may show the parent alone.
Tests used:
Assay type in all cases: biochemical
[1] = biological target: T1, human JAK1 (a.a. 837-1142) (Homo sapiens, UniProt P23458); experiment: In vitro JAK kinase assay (HTRF, phosphorylation of a biotinylated peptide), JAK1; settings: Table D1; read-out: JAK1 IC50
T1 construct: human JAK1 (a.a. 837-1142); His tag (N); made in house; host or cells: insect cells (baculovirus)
Summary of the method: (§1)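 Phosphorylation of a biotinylated peptide by the JAK kinase domain, detected by HTRF with Eu-Py20 and SA-APC. ATP was 90 μM for JAK1, 30 μM for JAK2 and 3 μM for JAK3. Reactions ran 1 h at room temperature and were stopped with EDTA, followed by 40 min antibody binding.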

[2] = biological target: T2, human JAK2 (a.a. 828-1132) (Homo sapiens, UniProt O60674); experiment: In vitro JAK kinase assay (HTRF, phosphorylation of a biotinylated peptide), JAK2; settings: Table D1
T2 construct: JAK2 (a.a. 828-1132); His tag (N); made in house; host or cells: insect cells (baculovirus)
Summary of the method: as §1

[3] = biological target: T3, human JAK3 (a.a. 781-1124) (Homo sapiens, UniProt P52333); experiment: In vitro JAK kinase assay (HTRF, phosphorylation of a biotinylated peptide), JAK3; settings: Table D1
T3 construct: JAK3 (a.a. 781-1124); His tag (N); made in house; host or cells: insect cells (baculovirus)
Summary of the method: as §1

TYK2 = TYK2 (Homo sapiens, UniProt P29597); experiment: TYK2 kinase inhibition (Table A1); settings: Table D1
[4] = biological target: T4, Recombinant Human Anaplastic Lymphoma Kinase (Homo sapiens, UniProt Q9UM73); experiment: ALK HTRF kinase assay; settings: Table D1; 90 μM ATP
T4 construct: purchased Invitrogen, Carlsbad, Calif
Summary of the method: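 Readout was HTRF between a Eu-W1024 anti-phosphotyrosine antibody and streptavidin-APC bound to biotinylated peptide phosphorylated by recombinant human ALK. IC50 values came from a four-parameter logistic fit.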

T3 sequence (P52333 781-1124): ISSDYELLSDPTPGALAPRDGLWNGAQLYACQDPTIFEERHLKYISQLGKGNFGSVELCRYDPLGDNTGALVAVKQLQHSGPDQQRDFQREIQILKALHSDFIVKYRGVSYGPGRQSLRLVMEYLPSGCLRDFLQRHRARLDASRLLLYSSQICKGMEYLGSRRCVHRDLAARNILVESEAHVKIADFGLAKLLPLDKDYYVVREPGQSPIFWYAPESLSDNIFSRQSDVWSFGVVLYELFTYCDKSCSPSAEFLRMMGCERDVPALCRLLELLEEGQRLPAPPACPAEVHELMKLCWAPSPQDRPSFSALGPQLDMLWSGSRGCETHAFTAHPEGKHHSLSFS
Chain of TYK2 (P29597 whole entry): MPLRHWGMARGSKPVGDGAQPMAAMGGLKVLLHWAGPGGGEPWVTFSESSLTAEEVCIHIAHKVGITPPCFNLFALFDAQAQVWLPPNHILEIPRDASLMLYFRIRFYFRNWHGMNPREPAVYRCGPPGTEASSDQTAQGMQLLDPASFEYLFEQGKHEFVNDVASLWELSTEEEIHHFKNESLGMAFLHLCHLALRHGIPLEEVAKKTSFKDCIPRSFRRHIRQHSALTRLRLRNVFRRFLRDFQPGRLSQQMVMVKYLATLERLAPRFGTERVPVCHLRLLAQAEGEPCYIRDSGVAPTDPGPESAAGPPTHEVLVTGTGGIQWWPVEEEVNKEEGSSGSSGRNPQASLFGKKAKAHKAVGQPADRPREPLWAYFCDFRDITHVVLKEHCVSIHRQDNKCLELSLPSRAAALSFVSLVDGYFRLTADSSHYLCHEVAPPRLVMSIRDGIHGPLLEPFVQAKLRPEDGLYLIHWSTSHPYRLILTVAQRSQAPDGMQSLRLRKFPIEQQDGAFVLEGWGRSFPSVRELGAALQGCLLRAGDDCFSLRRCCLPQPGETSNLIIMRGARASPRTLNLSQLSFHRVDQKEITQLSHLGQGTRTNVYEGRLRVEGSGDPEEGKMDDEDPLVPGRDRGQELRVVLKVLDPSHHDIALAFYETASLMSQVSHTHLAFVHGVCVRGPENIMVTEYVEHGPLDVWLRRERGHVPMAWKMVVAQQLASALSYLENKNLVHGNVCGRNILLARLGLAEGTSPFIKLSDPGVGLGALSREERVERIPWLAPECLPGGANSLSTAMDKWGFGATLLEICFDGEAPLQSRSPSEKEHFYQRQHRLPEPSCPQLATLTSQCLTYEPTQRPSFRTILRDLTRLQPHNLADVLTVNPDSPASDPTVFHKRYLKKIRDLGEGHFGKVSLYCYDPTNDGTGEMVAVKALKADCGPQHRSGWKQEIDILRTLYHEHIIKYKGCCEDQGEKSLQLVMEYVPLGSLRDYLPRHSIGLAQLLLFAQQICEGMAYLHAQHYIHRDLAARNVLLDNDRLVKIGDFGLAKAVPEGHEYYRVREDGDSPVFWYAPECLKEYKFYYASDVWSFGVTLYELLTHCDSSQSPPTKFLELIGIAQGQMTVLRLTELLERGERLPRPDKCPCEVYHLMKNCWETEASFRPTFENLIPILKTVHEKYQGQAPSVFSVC
T2 sequence (O60674 828-1132): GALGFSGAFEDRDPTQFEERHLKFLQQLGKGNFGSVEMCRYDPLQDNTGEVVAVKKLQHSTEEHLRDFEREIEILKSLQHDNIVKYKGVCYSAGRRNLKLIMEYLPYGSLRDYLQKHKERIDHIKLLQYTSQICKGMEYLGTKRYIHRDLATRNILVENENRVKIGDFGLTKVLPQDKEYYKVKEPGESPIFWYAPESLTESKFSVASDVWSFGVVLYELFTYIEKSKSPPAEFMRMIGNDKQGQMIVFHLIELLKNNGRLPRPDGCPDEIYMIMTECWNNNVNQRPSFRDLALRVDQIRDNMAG
T4 sequence (Q9UM73 19-1620): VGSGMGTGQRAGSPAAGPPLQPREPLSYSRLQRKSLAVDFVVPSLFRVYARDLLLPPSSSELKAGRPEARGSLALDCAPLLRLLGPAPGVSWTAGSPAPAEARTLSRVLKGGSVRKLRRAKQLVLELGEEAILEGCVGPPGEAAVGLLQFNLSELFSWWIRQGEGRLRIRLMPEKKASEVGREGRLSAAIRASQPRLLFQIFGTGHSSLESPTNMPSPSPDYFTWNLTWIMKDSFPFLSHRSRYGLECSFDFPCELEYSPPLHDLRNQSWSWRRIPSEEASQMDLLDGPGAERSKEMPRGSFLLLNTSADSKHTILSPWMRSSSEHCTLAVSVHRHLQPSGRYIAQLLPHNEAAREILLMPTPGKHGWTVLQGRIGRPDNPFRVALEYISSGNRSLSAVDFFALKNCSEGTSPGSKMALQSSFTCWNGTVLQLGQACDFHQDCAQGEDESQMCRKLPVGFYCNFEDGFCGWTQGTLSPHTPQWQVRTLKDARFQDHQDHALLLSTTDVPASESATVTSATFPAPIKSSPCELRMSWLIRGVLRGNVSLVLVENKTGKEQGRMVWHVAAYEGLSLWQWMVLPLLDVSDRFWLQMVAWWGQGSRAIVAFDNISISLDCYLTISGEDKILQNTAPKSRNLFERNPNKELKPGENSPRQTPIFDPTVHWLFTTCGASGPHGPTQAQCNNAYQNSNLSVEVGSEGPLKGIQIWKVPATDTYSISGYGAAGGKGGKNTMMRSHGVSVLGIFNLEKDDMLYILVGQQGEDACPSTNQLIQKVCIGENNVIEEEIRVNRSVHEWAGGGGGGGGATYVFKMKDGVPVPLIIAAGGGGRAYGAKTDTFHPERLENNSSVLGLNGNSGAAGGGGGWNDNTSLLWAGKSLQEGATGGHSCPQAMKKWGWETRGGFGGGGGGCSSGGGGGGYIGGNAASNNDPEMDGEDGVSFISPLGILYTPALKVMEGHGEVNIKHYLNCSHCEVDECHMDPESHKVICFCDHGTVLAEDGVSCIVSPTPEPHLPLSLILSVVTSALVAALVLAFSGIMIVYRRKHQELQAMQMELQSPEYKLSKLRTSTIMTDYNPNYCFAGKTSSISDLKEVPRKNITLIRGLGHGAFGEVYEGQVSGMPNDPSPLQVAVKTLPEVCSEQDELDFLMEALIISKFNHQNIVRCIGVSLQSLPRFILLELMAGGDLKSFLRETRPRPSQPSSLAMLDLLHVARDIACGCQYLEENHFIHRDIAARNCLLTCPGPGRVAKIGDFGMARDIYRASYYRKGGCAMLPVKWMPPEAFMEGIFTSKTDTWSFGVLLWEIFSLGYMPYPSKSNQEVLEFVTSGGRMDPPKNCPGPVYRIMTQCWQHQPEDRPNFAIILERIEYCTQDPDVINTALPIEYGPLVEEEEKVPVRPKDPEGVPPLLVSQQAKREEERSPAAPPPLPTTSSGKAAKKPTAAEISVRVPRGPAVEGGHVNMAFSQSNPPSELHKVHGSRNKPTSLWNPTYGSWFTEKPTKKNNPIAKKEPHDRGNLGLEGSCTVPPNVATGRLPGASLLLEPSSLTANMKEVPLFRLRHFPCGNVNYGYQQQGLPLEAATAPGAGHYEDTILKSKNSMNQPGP
T1 sequence (P23458 849-1154): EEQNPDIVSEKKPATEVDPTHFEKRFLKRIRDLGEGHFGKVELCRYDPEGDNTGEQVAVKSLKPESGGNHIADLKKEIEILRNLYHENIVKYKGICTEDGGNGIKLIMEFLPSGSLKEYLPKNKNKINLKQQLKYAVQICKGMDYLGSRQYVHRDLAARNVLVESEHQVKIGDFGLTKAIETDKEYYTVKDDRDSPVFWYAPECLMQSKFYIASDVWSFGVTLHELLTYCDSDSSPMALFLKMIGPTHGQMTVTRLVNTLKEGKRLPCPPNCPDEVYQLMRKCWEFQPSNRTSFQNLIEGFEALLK

Row | Structure (SMILES) | IC50 [1] [nM] | IC50 [2] [nM] | IC50 [3] [nM] | IC50 (TYK2) [nM] | IC50 [4] [nM]
1 | CS(=O)(=O)N1CCN(c2cc(-c3cc4cc(c3)Nc3ncc(Cl)c(n3)Nc3cccc(c3)OCC4)ccn2)CC1 [Example D36, 6-Chloro-19-{2-[4-(methylsulfonyl)piperazin-1-yl]pyridin-4-yl}-14-oxa-2,4,8,23-tetraazatetracyclo[15.3.1.1(3,7).1(9,13)]tricosa-1(21),3(23),4,6,9(22),10,12,17,19-nonaene bis(trifluoroacetate)] | 1.3 | 0.4 | 4.9 | 4.9 | 225
2 | CC(=O)N1CCN(c2ccc(-c3cc4cc(c3)Nc3ncc(Cl)c(n3)Nc3cccc(c3)OCC4)cn2)CC1 [Example D37, 19-[6-(4-Acetylpiperazin-1-yl)pyridin-3-yl]-6-chloro-14-oxa-2,4,8,23-tetraazatetracyclo[15.3.1.1(3,7).1(9,13)]tricosa-1(21),3(23),4,6,9(22),10,12,17,19-nonaene tris(trifluoroacetate)] | 0.9 | 0.7 | 9.9 | 1.4 | 248
3 | CS(=O)(=O)N1CCN(c2ccc(-c3cc4cc(c3)Nc3ncc(Cl)c(n3)Nc3cccc(c3)OCC4)cn2)CC1 [Example D38, 6-Chloro-19-{6-[4-(methylsulfonyl)piperazin-1-yl]pyridin-3-yl}-14-oxa-2,4,8,23-tetraazatetracyclo[15.3.1.1(3,7).1(9,13)]tricosa-1(21),3(23),4,6,9(22),10,12,17,19-nonaene bis(trifluoroacetate)] | 1.1 | 0.9 | 19 | 4 | 442
4 | NC(=O)N1CCN(c2cc(-c3cc4cc(c3)Nc3ncc(Cl)c(n3)Nc3cccc(c3)OCC4)ccn2)CC1 [Example D39, 4-{4-[6-Chloro-14-oxa-2,4,8,23-tetraazatetracyclo[15.3.1.1(3,7).1(9,13)]tricosa-1(21),3(23),4,6,9(22),10,12,17,19-nonaen-19-yl]pyridin-2-yl}piperazine-1-carboxamide bis(trifluoroacetate)] | 0.5 | 0.5 | 6.4 | 1.8 | 91
5 | NC(=O)N1CCN(c2ccc(-c3cc4cc(c3)Nc3ncc(Cl)c(n3)Nc3cccc(c3)OCC4)cn2)CC1 [Example D40, 4-{5-[6-Chloro-14-oxa-2,4,8,23-tetraazatetracyclo[15.3.1.1(3,7).1(9,13)]tricosa-1(21),3(23),4,6,9(22),10,12,17,19-nonaen-19-yl]pyridin-2-yl}piperazine-1-carboxamide bis(trifluoroacetate)] | 0.9 | 0.7 | 7.2 | 2.1 | 182
6 | CC(C)(C)NC(=O)N1CCN(c2cc(-c3cc4cc(c3)Nc3ncc(Cl)c(n3)Nc3cccc(c3)OCC4)ccn2)CC1 [Example D41, N-(tert-Butyl)-4-{4-[6-chloro-14-oxa-2,4,8,23-tetraazatetracyclo[15.3.1.1(3,7).1(9,13)]tricosa-1(21),3(23),4,6,9(22),10,12,17,19-nonaen-19-yl]pyridin-2-yl}piperazine-1-carboxamide bis(trifluoroacetate)] | 3.1 | 0.4 | 17 | 6.2 | 280
7 | O=C(Nc1ccccc1)N1CCN(c2ccc(-c3cc4cc(c3)Nc3ncc(Cl)c(n3)Nc3cccc(c3)OCC4)cn2)CC1 [Example D42, 4-{5-[6-Chloro-14-oxa-2,4,8,23-tetraazatetracyclo[15.3.1.1(3,7).1(9,13)]tricosa-1(21),3(23),4,6,9(22),10,12,17,19-nonaen-19-yl]pyridin-2-yl}-N-phenylpiperazine-1-carboxamide bis(trifluoroacetate)] | 2.2 | 2.1 | 20 | 4 | 730
8 | COC(=O)c1cc2cc(c1)OCCSc1cccc(c1)Nc1nc(ncc1Cl)N2 [Example D43, Methyl 6-chloro-17-oxa-14-thia-2,4,8,24-tetraazatetracyclo[16.3.1.1(3,7).1(9,13)]tetracosa-1(22),3(24),4,6,9(23),10,12,18,20-nonaene-20-carboxylate trifluoroacetate] | 2.9 | 5.3 | 66 | 37 | 390
9 | O=C(Nc1ccccc1)N1CCN(c2cc(-c3cc4cc(c3)Nc3ncc(Cl)c(n3)Nc3cccc(c3)OCC4)ccn2)CC1 [Example D44, 4-{4-[6-Chloro-14-oxa-2,4,8,23-tetraazatetracyclo[15.3.1.1(3,7).1(9,13)]tricosa-1(21),3(23),4,6,9(22),10,12,17,19-nonaen-19-yl]pyridin-2-yl}-N-phenylpiperazine-1-carboxamide bis(trifluoroacetate)] | 2.6 | 1.5 | 18 | 15 | 480
10 | O=C(NCc1ccccc1)N1CCN(c2cc(-c3cc4cc(c3)Nc3ncc(Cl)c(n3)Nc3cccc(c3)OCC4)ccn2)CC1 [Example D45, N-Benzyl-4-{4-[6-chloro-14-oxa-2,4,8,23-tetraazatetracyclo[15.3.1.1(3,7).1(9,13)]tricosa-1(21),3(23),4,6,9(22),10,12,17,19-nonaen-19-yl]pyridin-2-yl}piperazine-1-carboxamide bis(trifluoroacetate)] | 8.1 | 3 | 36 | 13 | 340
11 | O=C(NC1CCCC1)N1CCN(c2cc(-c3cc4cc(c3)Nc3ncc(Cl)c(n3)Nc3cccc(c3)OCC4)ccn2)CC1 [Example D46, 4-{4-[6-Chloro-14-oxa-2,4,8,23-tetraazatetracyclo[15.3.1.1(3,7).1(9,13)]tricosa-1(21),3(23),4,6,9(22),10,12,17,19-nonaen-19-yl]pyridin-2-yl}-N-cyclopentylpiperazine-1-carboxamide bis(trifluoroacetate)] | 4.7 | 0.9 | 21 | 8.2 | 390
12 | O=C(NCc1ccccc1)N1CCN(c2ccc(-c3cc4cc(c3)Nc3ncc(Cl)c(n3)Nc3cccc(c3)OCC4)cn2)CC1 [Example D48, bis(trifluoroacetate)] | 4.9 | 2.1 | 27 | 8.3 | > 1000
13 | O=C(Nc1ccccc1)c1cc2cc(c1)OCCSc1cccc(c1)Nc1nc(ncc1Cl)N2 [Example D50, 6-Chloro-N-phenyl-17-oxa-14-thia-2,4,8,24-tetraazatetracyclo[16.3.1.1(3,7).1(9,13)]tetracosa-1(22),3(24),4,6,9(23),10,12,18,20-nonaene-20-carboxamide trifluoroacetate] | 7.3 | 4.1 | 55 | 16 | 1500
14 | O=C(NCc1ccccc1)c1cc2cc(c1)OCCSc1cccc(c1)Nc1nc(ncc1Cl)N2 [Example D51, N-Benzyl-6-chloro-17-oxa-14-thia-2,4,8,24-tetraazatetracyclo[16.3.1.1(3,7).1(9,13)]tetracosa-1(22),3(24),4,6,9(23),10,12,18,20-nonaene-20-carboxamide trifluoroacetate] | 1.8 | 1.2 | 14 | 4.5 | 910
15 | O=C(c1cc2cc(c1)OCCSc1cccc(c1)Nc1nc(ncc1Cl)N2)N1CCOCC1 [Example D52, trifluoroacetate] | 1.5 | 1.2 | 13 | 4.4 | 420

Source: patent US8871753B2, “Macrocyclic compounds and their use as kinase inhibitors” (Incyte Corporation, priority 2008, dated 2014)
